# Laboratory results published in article PMC8558867, “Development of BromoTag: A “Bump-and-Hole”–PROTAC System to Induce Potent, Rapid, and Selective Degradation of Tagged Target Proteins” (Journal of Medicinal Chemistry, 2021).
# Read-outs that look alike come from different tables or passages of the source.
# Assays:
# [1] = tested on: BromoTag-Brd2; assay: Competition assay (inhibitor pretreatment, western blot); assay type: cell-based, human; details: 200 nM 46 for 3 h after 1 h pretreatment
# Method: Heterozygous BromoTag-Brd2 HEK293 cells were plated in six-well plates at a density of 5 × 10^5 cells per well in 2 mL DMEM. […] After 3 h, the cells were harvested for subsequent processing via western blot. Each treatment was performed in tandem to produce two technical repeats per condition. The six-well plates were incubated for 4 h at 37 °C and 5% CO2 throughout the experiment.
# (§1) All cells were harvested on ice with RIPA lysis and extraction buffer (Thermo Fisher Scientific, 89901) supplemented with protease inhibitor cocktail (Merck, 11697498001) and Benzonase Nuclease (Sigma, E1014) before being stored at −20 °C prior to use. Total protein quantity was determined using the BCA protein assay (#23225, Pierce, Rockford, Illinois). The protein concentration was determined using the BCA assay (Thermo Fisher Scientific, 23225). The samples were then prepared and loaded onto NuPAGE 4–12% bis–tris Midi gels (Thermo Fisher Scientific, WG1403A), followed by the transfer of proteins onto nitrocellulose membranes (EMD Millipore). The membranes were blocked for 1 h prior to incubation with the primary antibodies using 5% Milk TBST. […] All western blots were analyzed for band intensities using Image Lab from Bio-Rad (LI-COR, Biosciences). The data extracted from these blots were then plotted and analyzed using Prism (v. 8.2.0, GraphPad).
# [2] = molecular target: T1, VHL (VCB protein) (Homo sapiens, UniProt P40337); assay: FP competitive binding assay, binary binding; details: compound alone; mean ±S.E.M., N = 4; read-out: binary affinity to VHL Kd
# T1 construct: N-terminally His6-tagged VHL (54–213); His6 (N, cleaved yes); made in house; host or cells: E. coli
# [3] = tested on: 22RV1 cells; assay: CellTiter-Glo 2.0 cell viability assay, 22RV1; assay type: cell-based, human; details: 22RV1, up to 1–10 μM
# [4] = tested on: BromoTag-Brd2; assay: Time course degradation assay (western blot, 0–36 h) in heterozygous BromoTag-Brd2 HEK293 cells; assay type: cell-based, human; details: 500 nM
# Method: Heterozygous BromoTag-Brd2 HEK293 cells were plated at a density of 5 × 10^5 cells per well of a six-well healthy plate a day prior to initiating the time course assay. […] The time point range was between 0 and 36 h. Treatment was applied in a staggered fashion to enable all time points to be harvested at the same time.
# as §1
# [5] = tested on: BromoTag-Brd2; assay: Recovery (washout) assay; assay type: cell-based, human
# Method: This was performed in the genotype-verified heterozygous BromoTag-Brd2 HEK293 cell line. Heterozygous BromoTag-Brd2 HEK293 cells were plated at a density of 5 × 10^5 cells per well of a six-well plate a day before initiating the recovery assay. […] During treatment, the cells were kept at 37 °C, 5% CO2, and 95% humidity.
# as §1
# [6] = tested on: MV-4-11 cells; assay: CellTiter-Glo 2.0 cell viability assay, MV-4-11; assay type: cell-based, human; details: MV-4-11, up to 1–10 μM
# [7] = In vivo PK profiling; details: male, C57BL/6, mouse, plasma, mice
# Method: PK profiling was outsourced and undertaken by Shanghai ChemPartner Co., Ltd. All animal experiments performed were conducted in compliance with the Institutional Animal Care and Use Committee (IACUC) and the Office of Laboratory Animal Welfare (OLAW) guidelines. Six- to eight-week-old C57BL/6 male mice purchased from Jihui Laboratory Animal Co. LTD were used in the study. […] The animals were restrained manually at the designated time points (0.083, 0.25, 0.5, 1, 2, 4, and 8 h); approximately, 110 μL of blood sample was collected via facial vein into K2EDTA tubes. Three mice per time point were used, resulting in a […]. The blood sample was put on ice and centrifuged at 2000g for 5 min to obtain the plasma sample within 15 min. The plasma samples were stored at approximately −70 °C until analysis. A 30 μL aliquot of plasma was added with 200 μL of internal standard (diclofenac, 40 ng/mL) in 1% formic acid in MeCN. The mixture was then vortexed for 1 min and then centrifuged for 10 min at 5800 rpm. The supernatant (100 μL) was transferred to a new plate. The solvent (0.5 μL) was injected to LC–MS/MS. LC–MS/MS instrument used: SCIEX LC–MS/MS-45 (Triple Quad 6500+). Data was analyzed by WinNonLin and Microsoft Excel.
# [8] = molecular target: T2, VHL with Brd4^BD2 L387A (Homo sapiens, UniProt O60885+P40337, L387A); assay: FP competitive binding assay, ternary complex binding (compound preincubated with Brd4^BD2 L387A)
# T2 construct: N-terminally His6-tagged VHL (54–213); His6 (N, cleaved yes); made in house; host or cells: E. coli
compound,measurement,setting,value
"CC[C@@H](C(=O)OCCOCCOCCOCC(=O)N[C@H](C(=O)N1C[C@H](O)C[C@H]1C(=O)NCc1ccc(-c2scnc2C)cc1)C(C)(C)C)[C@@H]1N=C(c2ccc(Cl)cc2)c2c(sc(C)c2C)-n2c(C)nnc21 [AGB1 (46), (S)-13-((2S,4R)-4-Hydroxy-2-((4-(4-methylthiazol-5-yl)benzyl)carbamoyl)pyrrolidine-1-carbonyl)-14,14-dimethyl-11-oxo-3,6,9-trioxa-12-azapentadecyl (R)-2-((S)-4-(4-chlorophenyl)-2,3,9-trimethyl-6H-thieno[3,2-f][1,2,4]triazolo[4,3-a][1,4]diazepin-6-yl)butanoate]",on-target degradation activity upon pretreatment with MLN4924 or VH298,"[1]; 3 μM MLN4924, 10 μM VH298",completely abrogated
same,on-target degradation activity upon pretreatment with MG132,[1]; 50 μM MG132,blocked
same,Kd,[2],0.125 µM
same,cytotoxicity,[3],lack of cytotoxicity
same,time to completely degrade BromoTag-Brd2,[4],≤ 6 h
same,time after washout at which BromoTag-Brd2 protein levels recover,"[5]; 200 nM for 3 h, then washout",24 h
same,on-target degradation without washout,"[5]; 200 nM, no washout",complete and durable on-target degradation for up to 72 h
same,cytotoxicity,[6],lack of cytotoxicity
same,AUC(0-t) at 8 h,[7]; IV (5 mg/kg),1.71 µM·h
same,MRT inf,[7]; IV (5 mg/kg),23.4 min
same,clearance at 8 h,[7]; IV (5 mg/kg),47.2 mL/min/kg
same,half-life at 8 h,[7]; IV (5 mg/kg),89.4 min
same,AUC(0-inf) at 8 h,"[7]; IV (5 mg/kg), read-out: AUCinf",1.72 µM·h
same,Vd at 8 h,"[7]; IV (5 mg/kg), read-out: Vss",1.1 L/kg
same,AUC(0-t) at 8 h,[7]; SC (5 mg/kg),2.33 µM·h
same,Cmax at 8 h,[7]; SC (5 mg/kg),700 nM
same,Tmax at 8 h,[7]; SC (5 mg/kg),30 min
same,half-life at 8 h,[7]; SC (5 mg/kg),99 min
same,AUC(0-inf) at 8 h,"[7]; SC (5 mg/kg), read-out: AUCinf (μ; M·h)",2.4 µM·h
same,α (FP binding),"[8]; cooperativity, Kd binary/Kd ternary, supplementary CSV",11.1
same,Kd,"[8]; preincubated with Brd4^BD2 L387A, mean ±S.E.M., N = 4, read-out: ternary binding affinity Kd",0.011 µM
same,cooperativity (α),[8]; α = Kd binary/Kd ternary,11.1
